Laboratory results published in BindingDB's records for patent US10519177 (Plexxikon Inc., 2019).

What follows are molecules tested against T1, Bromodomain-containing protein 4 [1-477] (Human, UniProt O60885).
T1 construct: 1-477

| IC50 | SMILES |
| --- | --- |
| < 1000 nM | Cc1noc(C)c1-c1cnc2c(-c3ccc(C(=O)O)cc3)cn(CC3CC4(CCC4)C3)c2c1 [US10519177, Compound P-0603] |
| < 1000 nM | COC(=O)c1ccc(-c2c[nH]c3cc(-c4c(C)noc4C)cnc23)cc1 [US10519177, Compound P-1033] |
| < 1000 nM | Cc1noc(C)c1-c1cnc2c(I)cn(Cc3ccccc3C#N)c2c1 [US10519177, Compound P-0921] |
